Reference: US20060199876A1, “Bioceramic composite coatings and process for making same” (The University of British Columbia, priority 2005, published 2006)

Assay: Drug release from PCMC composite coating with PLGA diffusion barrier
Assay type: physicochemical
Settings: release from HAP/PLGA PCMC coating of Example 9 (paclitaxel in HAP phase, Rapamycin in polymer phase) covered with 2 μm thick PLGA (85:15) layer
Method: Porous HAP coating was deposited on stent as in the above Example 2. The HAP porous coating stents was impregnated into 2 wt % paclitaxel methanol solution for 20 min and then removed extra solution by high speed spinning, then dried in an oven for 2 hours. The paclitaxel was filled into mesopores and partial into large pore micropores. The paclitaxel loaded stents were subsequently impregnated with 10 wt % PLGA acetone solution containing 2 wt % Rapamycin and then the extra solution removed by spinning. The biopolymer PLGA filled inside pores provides extra flexibility for HAP coatings and diffusion barrier for controlling drug release profiles. Rapamycin in the polymer phase will release much faster than that of paclitaxel only in the HAP phase.
As illustrated in the above Example 9, different drugs were encapsulated into the polymer and HAP phases. In order to add further controls for drug release profile, e.g. to further slow down the drug release rate, a functional diffusion barrier was deposited on the surface of the composite PCMC coating. In this particular example, a 2 μm thick PLGA (85:15) layer was deposited on the PCMC surface by spin-coating. Rapamycin release from such modified PCMC coating was sustained for 3-5 months and paclitaxel for 6-12 months.

- drug release sustained for: 6-12 months
Compound: CC(=O)O[C@H]1C(=O)[C@@]2(C)[C@H]([C@H](OC(=O)c3ccccc3)[C@]3(O)C[C@H](OC(=O)[C@H](O)[C@@H](NC(=O)c4ccccc4)c4ccccc4)C(C)=C1C3(C)C)[C@]1(OC(C)=O)CO[C@@H]1C[C@@H]2O [paclitaxel]
